Measured values: the supplement of paper PMC10883282

How the values were obtained:
Assay in all cases: relative viability vs DMSO control (72 h) (fraction); higher = more viable cells
SK-LMS-1 = system: SK-LMS-1
Outline: (§1)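 Sarcoma cell lines went into 384-well plates at densities chosen to reach 80–90% confluence. After 24 h, each well received 2.5 µl of serially diluted compound, with source plates running from 10 mM to 0.0002 mM, and the plates were kept 72 h at 37 °C, 5% CO2, alongside 0.1% DMSO vehicle and a 5 µM positive control. Relative viability was derived from ATPLite readings as percent growth and averaged over up to triplicate wells. The data were then rescaled so that 1 stands for full and 0 for none.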

VA-ES-BJ = system: VA-ES-BJ
Outline: as §1

KHOS-240S = system: KHOS-240S
Outline: as §1

A204 = system: A204
Outline: as §1

MES-SA = system: MES-SA
Outline: as §1

SW1353 = system: SW1353
Outline: as §1

SK-ES-1 = system: SK-ES-1
Outline: as §1

RD = system: RD
Outline: as §1

SW872 = system: SW872
Outline: as §1

G401 = system: G401
Outline: as §1

HS729 = system: HS729
Outline: as §1

SW982 = system: SW982
Outline: as §1

Cc1cc(Nc2ncc(Cl)c(Nc3ccccc3S(=O)(=O)C(C)C)n2)c(OC(C)C)cc1C1CCNCC1 [Ceritinib]
Conditions	relative viability
A204, 0.00017 µM	1.05
A204, 0.00051 µM	1.07
A204, 0.00152 µM	1.08
A204, 0.00457 µM	1.07
A204, 0.01372 µM	1.07
A204, 0.04115 µM	1.06
A204, 0.1235 µM	1.06
A204, 0.3704 µM	1.04
A204, 1.111 µM	0.928
A204, 3.333 µM	0.334
A204, 10 µM	0.0012
G401, 0.00017 µM	0.953
G401, 0.00051 µM	0.932
G401, 0.00152 µM	0.971
G401, 0.00457 µM	0.974
G401, 0.01372 µM	0.972
G401, 0.04115 µM	0.961
G401, 0.1235 µM	0.918
G401, 0.3704 µM	0.788
G401, 1.111 µM	0.615
G401, 3.333 µM	0.416
G401, 10 µM	-0.00287
HS729, 0.00017 µM	0.955
HS729, 0.00051 µM	1.02
HS729, 0.00152 µM	1.03
HS729, 0.00457 µM	1.01
HS729, 0.01372 µM	1.03
HS729, 0.04115 µM	1.02
HS729, 0.1235 µM	0.95
HS729, 0.3704 µM	0.847
HS729, 1.111 µM	0.751
HS729, 3.333 µM	0.626
HS729, 10 µM	0.0042
KHOS-240S, 0.00017 µM	0.991
KHOS-240S, 0.00051 µM	0.992
KHOS-240S, 0.00152 µM	1
KHOS-240S, 0.00457 µM	1.01
KHOS-240S, 0.01372 µM	1.01
KHOS-240S, 0.04115 µM	1.02
KHOS-240S, 0.1235 µM	0.9951
KHOS-240S, 0.3704 µM	0.897
KHOS-240S, 1.111 µM	0.826
KHOS-240S, 3.333 µM	0.439
KHOS-240S, 10 µM	0.0022
MES-SA, 0.00017 µM	0.953
MES-SA, 0.00051 µM	0.92
MES-SA, 0.00152 µM	0.95
MES-SA, 0.00457 µM	0.951
MES-SA, 0.01372 µM	0.963
MES-SA, 0.04115 µM	0.969
MES-SA, 0.1235 µM	0.96
MES-SA, 0.3704 µM	0.98
MES-SA, 1.111 µM	0.94
MES-SA, 3.333 µM	0.676
MES-SA, 10 µM	-0.00177
RD, 0.00017 µM	0.996
RD, 0.00051 µM	1.02
RD, 0.00152 µM	1.04
RD, 0.00457 µM	0.996
RD, 0.01372 µM	1.03
RD, 0.04115 µM	1.02
RD, 0.1235 µM	0.947
RD, 0.3704 µM	0.771
RD, 1.111 µM	0.576
RD, 3.333 µM	0.381
RD, 10 µM	0.001
SK-ES-1, 0.00017 µM	0.967
SK-ES-1, 0.00051 µM	0.984
SK-ES-1, 0.00152 µM	1
SK-ES-1, 0.00457 µM	0.974
SK-ES-1, 0.01372 µM	0.961
SK-ES-1, 0.04115 µM	0.995
SK-ES-1, 0.1235 µM	0.914
SK-ES-1, 0.3704 µM	0.6537
SK-ES-1, 1.111 µM	0.339
SK-ES-1, 3.333 µM	0.102
SK-ES-1, 10 µM	0.000733
SK-LMS-1, 0.00017 µM	1.01
SK-LMS-1, 0.00051 µM	1.04
SK-LMS-1, 0.00152 µM	1.04
SK-LMS-1, 0.00457 µM	1.03
SK-LMS-1, 0.01372 µM	1.022
SK-LMS-1, 0.04115 µM	1.01
SK-LMS-1, 0.1235 µM	1.05
SK-LMS-1, 0.3704 µM	0.959
SK-LMS-1, 1.111 µM	0.96
SK-LMS-1, 3.333 µM	0.794
SK-LMS-1, 10 µM	0.00573
SW872, 0.00017 µM	1
SW872, 0.00051 µM	1.02
SW872, 0.00152 µM	1.07
SW872, 0.00457 µM	1.06
SW872, 0.01372 µM	1.09
SW872, 0.04115 µM	1.04
SW872, 0.1235 µM	1
SW872, 0.3704 µM	0.946
SW872, 1.111 µM	0.8717
SW872, 3.333 µM	0.631
SW872, 10 µM	-0.00807
SW982, 0.00017 µM	0.974
SW982, 0.00051 µM	0.943
SW982, 0.00152 µM	0.946
SW982, 0.00457 µM	0.92
SW982, 0.01372 µM	0.959
SW982, 0.04115 µM	0.9674
SW982, 0.1235 µM	0.902
SW982, 0.3704 µM	0.765
SW982, 1.111 µM	0.64
SW982, 3.333 µM	0.311
SW982, 10 µM	0.00217
SW1353, 0.00017 µM	0.94
SW1353, 0.00051 µM	0.939
SW1353, 0.00152 µM	0.969
SW1353, 0.00457 µM	0.953
SW1353, 0.01372 µM	0.948
SW1353, 0.04115 µM	0.953
SW1353, 0.1235 µM	0.932
SW1353, 0.3704 µM	0.89
SW1353, 1.111 µM	0.901
SW1353, 3.333 µM	0.137
SW1353, 10 µM	0.00227
VA-ES-BJ, 0.00017 µM	1.05
VA-ES-BJ, 0.00051 µM	1.04
VA-ES-BJ, 0.00152 µM	1.04
VA-ES-BJ, 0.00457 µM	1.05
VA-ES-BJ, 0.01372 µM	1.06
VA-ES-BJ, 0.04115 µM	1.03
VA-ES-BJ, 0.1235 µM	1.02
VA-ES-BJ, 0.3704 µM	0.975
VA-ES-BJ, 1.111 µM	0.954
VA-ES-BJ, 3.333 µM	0.929
VA-ES-BJ, 10 µM	-0.008
